Where a chain is given by its changes, count along the chain named. Names may count otherwise. “Also recorded” adds a separate entry of the source.

B1: K190C (protein, listed as Saccharomyces cerevisiae)
chain: MRKLNPALEFRDFIQVLKDEDDLIEITEEIDPNLEVGAIMRKAYESHLPAPLFKNLKGASKDLFSILGCPAGLRSKEKGDHGRIAHHLGLDPKTTIKEIIDYLLECKEKEPLPPITVPVSSAPCKTHILSEEKIHLQSLPTPYLHVSDGGKYLQTYGMWILQTPDKKWTNWSIARGMVVDDKHITGLVICPQHIRQIADSWAAIGKANEIPFALCFGVPPAAILVSSMPIPEGVSESDYVGAILGESVPVVKCETNDLMVPATSEMVFEGTLSLTDTHLEGPFGEMHGYVFKSQGHPCPLYTVKAMSYRDNAILPVSNPGLCTDETHTLIGSLVATEAKELAIESGLPILDAFMPYEAQALWLILKVDLKGLQALKTTPEEFCKKVGDIYFRTKVGFIVHEIILVADDIDIFNFKEVIWAYVTRHTPVADQMAFDDVTSFPLAPFVSQSSRSKTMKGGKCVTNCIFRQQYERSFDYITCNFEKGYPKGLVDKVNENWKRYGYK
B2: K190V (protein, listed as Saccharomyces cerevisiae)
chain: B1 chain with C190V
B3: K190D (protein, listed as Saccharomyces cerevisiae)
chain: B1 chain with C190D
B4: K190H (protein, listed as Saccharomyces cerevisiae)
chain: B1 chain with C190H
B5: K190N (protein, listed as Saccharomyces cerevisiae)
chain: B1 chain with C190N
B6: K190L (protein, listed as Saccharomyces cerevisiae)
chain: B1 chain with C190L
B7: R1751 (protein, listed as Saccharomyces cerevisiae)
chain: B1 chain with R175I, C190K

For one assay, the target named is T1, FDC1 (Saccharomyces cerevisiae, UniProt Q03034).
T1 construct: N-terminal 6xHis leader of vector pDEST17 (own knowledge of the vector); made in house; host or cells: E. coli BL21 (DE3)
T1 sequence (Q03034 1-503): B1 chain with C190K
Briefly: Effect of metal ions on FDC1 activity. The following applies: 10 mM metal ion, 1.4 mM tCA, purified FDC1, 5 minutes at 30° C. The assay is classed as biochemical. The procedure:
After the reaction, 1 mL of propanol was added to the reaction mixtures to solubilize styrene. The experimental control used the same conditions except the reaction mixture contained no metal ions. The experimental negative control used the same conditions except the reaction mixture contained no substrate.
After the reaction, 1 mL of propanol was added to the reaction mixtures to solubilize styrene. The experimental control used the same conditions except the reaction mixture contained no metal ions or EDT A. The experimental negative control used the same conditions except the reaction mixture contained no substrate.
With `[Ca+2].[Cl-].[Cl-]` [Ca^2+, CaCl2], the “effect of metal ions on FDC1 activity” value was “increased the activity of FDC1”.

As for `O=S(=O)([O-])[O-].[Zn+2]` [Zn^2+, ZnSO4], the “effect of metal ions on FDC1 activity” value is on record as “increased the activity of FDC1”.

Take `[Cl][Fe]([Cl])[Cl]` [Fe^3+, FeCl3]: the “effect of metal ions on FDC1 activity” value was “increased the activity of FDC1”.

Take `O=S(=O)([O-])[O-].[Mg+2]` [Mg^2+, MgSO4]: the “effect of metal ions on FDC1 activity” value was “increased the activity of FDC1”.

The target in another assay is T1, FDC1. Briefly: Substrate specificity of FDC1. The assay is classed as biochemical. Particulars: 0.2 mM substrate, 0.5 mg purified FDC1, 5 minutes at 30° C., pH 6.5. The protocol: The reaction mixtures were then incubated for 5 minutes at 30° C. After the reaction 1 mL of propanol was added to the reaction mixtures to solubilize styrene. The experimental negative control used the same conditions except the reaction mixture contained no substrate.
Consider `Cc1ccccc1C=CC(=O)O` [2-methylcinnamic acid], for which the “activity compared with that of tCA (relative activity)” value (from here on “activity … (relative activity)”) stood at 35%.

For the molecule `O=C(O)C=Cc1ccc(O)cc1` [4-hydroxycinnamic acid], the “activity … (relative activity)” value turned out to be 68%.

With `O=C(O)C=Cc1cccc(O)c1` [3-hydroxycinnamic acid], the “activity … (relative activity)” value is reported as “did not show any activity”.

For `O=C(O)/C=C/c1ccccc1` [t-cinnamic acid, trans-cinnamic acid], the “activity … (relative activity)” value worked out at 100%.

Turning to `COc1ccc(C=CC(=O)O)cc1OC` [3,4-dimethoxycinnamic acid], the “activity … (relative activity)” value is reported as “did not show any activity”.

In the case of `COc1cc(/C=C/C(=O)O)ccc1O` [ferulic acid], the “activity … (relative activity)” value was 57%.

For `COc1ccc(OC)c(C=CC(=O)O)c1` [2,5-dimethoxycinnamic acid], the “activity … (relative activity)” value is listed as “did not show any activity”.

As to `O=C(O)C=Cc1ccccc1O` [2-hydroxycinnamic acid], the “activity … (relative activity)” value is on record as “did not show any activity”.

A further assay concerns styrene production. Briefly: Styrene production by FDC1 mutants from tCA (colorimetric screening, confirmed by HPLC). The format is cell-based. The following applies: E. coli cells, tCA 1 g/L, 30° C. for 4 hours. The protocol:
Saturation mutagenesis allows the change of one amino acid to 19 other alternative amino acid residues. […] The codon NNK has 32-fold degeneracy and encodes all 20 amino acids without rare codons. The QuikChange PCR products were examined by agarose gel electrophoresis and then 15 μl of PCR products were digested with 1 μl Dpnl (New England Biolabs) at 37° C. for 4 hours to remove the template plasmid. Aliquots of (2 μl) digestive products were transformed into BL21-Gold (DE3) competent cells (STRATAgene, CA) and inoculated on Luria-Bertani (LB) agar plates containing kanamycin. The quality of the library by DNA sequencing was confirmed. The library covers 90% of mutagenesis (17 mutants out of 19). To cover 100% (19 out of 19 mutant), we screened 150 mutants for each site.
The transformants (Example II.2) were inoculated in 96-well plates (NUNC, Roskilde, Denmark) containing 100 μl LB broth per well and incubated at 37° C., overnight. The cultures were then mixed with equal amount of 50% glycerol and stored at −80° C. as the master plate. An aliquot of 10 μl culture was inoculated in 2 ml deep-well plates (USA scientific) with 1 ml TB broth per well and incubated at 37° C. until the OD600 reached 1.0. The cultures were then induced by 0.2 mM IPTG and incubated at 18° C. for 20 hours with shaking at 250 rpm.
Cells were harvested and suspended with 0.25 ml PBS buffer at pH 7.0 and the substrate (tCA) was added at a final concentration of 1 g/L. The culture was incubated at 30° C. for 4 hours and the volatile product styrene was collected by using 96 well STRATA-X® reversed phase plate containing 10 mg polymer based resin (Phenomenex) on top of the culture plate (FIG. 19). To avoid styrene vapor diffusion, 96-square well silicone sealing mats with pre-slit were used between 96-well culture plate and 96 well STRATA-X® reversed phase plate. The product was collected by 200 μl propanol for each well and the amount of product was measured by colorimetric method.
Various chemicals were tested as an indicator for styrene detection, including NBP (4-nitrobenzyl-pyridine) as a preferred indicator. Styrene was mixed with cytochrome P450 BM-3 in 50 mM phosphate buffer pH 8.0. The styrene oxidation reaction was started by adding 0.2 mM NADPH, and the reaction mixture was incubated at room temperature for 5 minutes with shaking. The NBP solution was added to the mixture and incubated at room temperature for further 5 minutes with shaking which gives white precipitate. The tube or plate containing reaction mixtures were heated at 70° C. for 30 minutes and chilled on ice for 5 minutes. After adding Dimethylformamide (150 μl) and 25 μl of 1M K2CO3, the reaction mixture gave blue color that can be measured spectrophotometrically at 600 nm immediately. The […] of NBP reacts with the oxirane ring of styrene oxide to yield a blue chromophore a blue color that can be monitored spectrophotometrically at 600 nm.
The mutants showing higher activity were confirmed by HPLC using an ACQUITY UPLC BEH C18 column (1.7-μm, 2.1×50-mm, Waters, USA). The samples were resolved in 30% acetonitrile (A) with an increasing concentration gradient of acetonitrile (B) for 1 min, 95%; then to 1 min, 30%; at a flow rate of 1 ml/min. UV absorption was monitored at 254-, 280-, and 310-nm. The changed amino acid residues in the mutants showing the higher activity were confirmed by DNA sequence.
B1: the “amount of styrene compared to that of wild type (in words)” value is reported as “significantly higher amount of styrene” and the “styrene produced compared to wild type” value is recorded as 3 times.

As to B2, the “amount of styrene compared to that of wild type (in words)” value is “significantly higher amount of styrene” and the “styrene produced compared to wild type” value stood at 3 times.

Regarding B3, the “amount of styrene compared to that of wild type (in words)” value was “significantly higher amount of styrene”.

In the case of B4, the “amount of styrene compared to that of wild type (in words)” value is recorded as “significantly higher amount of styrene”.

As for B5, the “amount of styrene compared to that of wild type (in words)” value was “significantly higher amount of styrene”.

For B6, the “amount of styrene compared to that of wild type (in words)” value is given as “significantly higher amount of styrene”.

B7: the “amount of styrene compared to that of wild type (in words)” value was “significantly higher amount of styrene” and the “styrene produced compared to wild type” value came to 1.5 times.

A further assay relates to styrene production. Briefly: Fermentation of E. coli with PAL2-FDC fusion with or without srpABC pump, Phe as substrate. The format is cell-based. The following applies: control contains only the fusion of PAL2 and FDC. The text has this:
Some bacteria have developed multiple mechanisms to adapt unfavorable conditions. For example, Pseudomonas strains have about three strategies for addressing organic solvent toxicity, i.e. modified membrane structure, active efflux pumps, and enzymatic detoxification. Here, a recombinant E. coli host expressing an efflux pump (called solvent-resistant-pump) was produced. The pump, a member of the ABC-transporter family, is composed of three subunits, srpA, periplasmic linker; srpB, inner membrane transporter; and srpC, out-membrane channels. The full-length of the srpABC pump sequence (˜6 kb) was cloned from the genomic DNA of P. putida. The clone was first inserted to pENTR vector with Zeocin resistance and then to E. coli expression vector pCONA-2-DEST with Kanamycin resistance.
Finally, the pump was transformed to the E. coli strain BL21 (DE3) containing the fusion of PAL2 and FDC which is resistant to Ampicillin. After the test expression of 5 clones in flasks, one clone was chosen for further experiment with fermenter. Fifty milliliters of overnight culture were inoculated in 1.5 L LB medium containing appropriate antibiotics. When cells reach an OD600˜0.8, 5 mM of IPTG was added to the culture for induction. […] Samples from the overnight fermentation (˜16 hrs) were taken and analyzed by HPLC in coupling with an Acclaim RSLC C18 column and detected at 280 nm. […]
Regarding “ABC-transporter: solvent-resistant efflux pump srpABC cloned from P. putida, subunits srpA, srpB, srpC”, the “styrene production with ABC-transporter compared to control without” value is “significantly increased; also recorded: enhanced nearly four times”.

Source of the values: patent publication US10752921B2, “Enzymes and methods for styrene synthesis” (Phytogene, Inc., priority 2012, dated 2020).
